According to the supplement of paper PMC10307832:

compound: CN1CCC(CC1)OC2=CC(=C(C=C2)NC3=NC=C4C(=N3)N(C(=O)N4C)C5CCCC5)OC [AZ3146] + CC(=O)c1c(C)c2cnc(Nc3ccc(N4CCNCC4)cn3)nc2n(C2CCCC2)c1=O [Palbociclib] (partner 0.5 µM); assay: relative viability (nuclei count vs DMSO), 5 days (fraction); higher = more cells survive; settings: first compound 0.08 µM
Procedure, shortened: (§1)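 Relative viability divides the nuclei count in treated wells by that in vehicle wells. Lung cancer cell lines were seeded in 1536-well plates, dosed by pin tool the next day, and fixed and stained after 5 days in one step with final 0.05% Triton X-100, 1% formaldehyde and 1 ug/ml Hoechst. Dosing was a single drug or a fixed anchor-drug dose plus five library-drug doses (not always all listed) in √10 steps, and values are medians of duplicate plates imaged at 4×.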

Row | Cell Line | relative viability
1 | NCI-H1437 | 0.311
2 | NCI-H661 | 0.443
3 | COR-L 105 | 0.408
4 | H3255 | 0.331
5 | NCI-H2347 | 0.441
6 | NCI-H1975 | 0.534
7 | NCI-H441 | 0.216
8 | NCI-H1650 | 0.301
9 | NCI-H1915 | 0.431
10 | NCI-H2087 | 0.181
11 | HCC-366 | 0.312
12 | NCI-H1793 | 0.269
13 | RERF-LC-KJ | 1.05
14 | EMC-BAC-2 | 0.466
15 | LCLC-97TM1 | 0.245
16 | NCI-H1651 | 0.486
17 | NCI-H2170 | 0.341
18 | NCI-H2009 | 0.256
19 | ABC-1 | 0.432
20 | SK-MES-1 | 0.331
21 | NCI-H727 | 0.663
22 | SW 1573 | 0.359

same assay, conditions: first compound 0.253 µM

Row | Cell Line | relative viability
23 | NCI-H1437 | 0.29
24 | NCI-H661 | 0.429
25 | COR-L 105 | 0.365
26 | H3255 | 0.294
27 | NCI-H2347 | 0.435
28 | NCI-H1975 | 0.548
29 | NCI-H441 | 0.199
30 | NCI-H1650 | 0.343
31 | NCI-H1915 | 0.571
32 | NCI-H2087 | 0.235
33 | HCC-366 | 0.398
34 | NCI-H1793 | 0.292
35 | RERF-LC-KJ | 1.17
36 | EMC-BAC-2 | 0.519
37 | LCLC-97TM1 | 0.247
38 | NCI-H1651 | 0.532
39 | NCI-H2170 | 0.361
40 | NCI-H2009 | 0.227
41 | ABC-1 | 0.736
42 | SK-MES-1 | 0.344
43 | NCI-H727 | 0.624
44 | SW 1573 | 0.368

same assay, conditions: first compound 0.8 µM

Row | Cell Line | relative viability
45 | NCI-H1437 | 0.303
46 | NCI-H661 | 0.42
47 | COR-L 105 | 0.377
48 | H3255 | 0.311
49 | NCI-H2347 | 0.457
50 | NCI-H1975 | 0.562
51 | NCI-H441 | 0.211
52 | NCI-H1650 | 0.366
53 | NCI-H1915 | 0.564
54 | NCI-H2087 | 0.244
55 | HCC-366 | 0.419
56 | NCI-H1793 | 0.311
57 | RERF-LC-KJ | 1.01
58 | EMC-BAC-2 | 0.555
59 | LCLC-97TM1 | 0.232
60 | NCI-H1651 | 0.53
61 | NCI-H2170 | 0.394
62 | NCI-H2009 | 0.243
63 | ABC-1 | 0.751
64 | SK-MES-1 | 0.346
65 | NCI-H727 | 0.675
66 | SW 1573 | 0.421

same assay, conditions: first compound 2.53 µM

Row | Cell Line | relative viability
67 | NCI-H1437 | 0.314
68 | NCI-H661 | 0.429
69 | COR-L 105 | 0.346
70 | H3255 | 0.344
71 | NCI-H2347 | 0.463
72 | NCI-H1975 | 0.552
73 | NCI-H441 | 0.265
74 | NCI-H1650 | 0.352
75 | NCI-H1915 | 0.573
76 | NCI-H2087 | 0.267
77 | HCC-366 | 0.391
78 | NCI-H1793 | 0.374
79 | RERF-LC-KJ | 1.21
80 | EMC-BAC-2 | 0.53
81 | LCLC-97TM1 | 0.225
82 | NCI-H1651 | 0.526
83 | NCI-H2170 | 0.398
84 | NCI-H2009 | 0.171
85 | ABC-1 | 0.851
86 | SK-MES-1 | 0.291
87 | NCI-H727 | 0.627
88 | SW 1573 | 0.401

same assay, conditions: first compound 8 µM

Row | Cell Line | relative viability
89 | NCI-H1437 | 0.27
90 | NCI-H661 | 0.4
91 | COR-L 105 | 0.372
92 | H3255 | 0.332
93 | NCI-H2347 | 0.415
94 | NCI-H1975 | 0.309
95 | NCI-H441 | 0.204
96 | NCI-H1650 | 0.283
97 | NCI-H1915 | 0.491
98 | NCI-H2087 | 0.206
99 | HCC-366 | 0.271
100 | NCI-H1793 | 0.321
101 | RERF-LC-KJ | 0.833
102 | EMC-BAC-2 | 0.514
103 | LCLC-97TM1 | 0.188
104 | NCI-H1651 | 0.497
105 | NCI-H2170 | 0.377
106 | NCI-H2009 | 0.204
107 | ABC-1 | 0.573
108 | SK-MES-1 | 0.305
109 | NCI-H727 | 0.659
110 | SW 1573 | 0.358

compound: CN1CCC(CC1)OC2=CC(=C(C=C2)NC3=NC=C4C(=N3)N(C(=O)N4C)C5CCCC5)OC [AZ3146] + O=C(c1cc(Cc2n[nH]c(=O)c3ccccc23)ccc1F)N1CCN(C(=O)C2CC2)CC1 [Olaparib] (partner 8 µM); assay: as above; settings: first compound 0.08 µM
Procedure, shortened: as §1

Row | Cell Line | relative viability
111 | NCI-H1437 | 0.589
112 | NCI-H661 | 0.806
113 | COR-L 105 | 0.654
114 | H3255 | 0.498
115 | NCI-H2347 | 0.587
116 | NCI-H1975 | 0.748
117 | NCI-H441 | 0.519
118 | NCI-H1650 | 0.857
119 | NCI-H1915 | 0.24
120 | NCI-H2087 | 0.563
121 | HCC-366 | 0.304
122 | NCI-H1793 | 0.864
123 | RERF-LC-KJ | 0.94
124 | EMC-BAC-2 | 0.407
125 | LCLC-97TM1 | 0.52
126 | NCI-H1651 | 0.191
127 | NCI-H2170 | 0.578
128 | NCI-H2009 | 0.642
129 | ABC-1 | 0.744
130 | SK-MES-1 | 0.779
131 | NCI-H727 | 0.632
132 | SW 1573 | 0.569

same assay, conditions: first compound 0.253 µM

Row | Cell Line | relative viability
133 | NCI-H1437 | 0.611
134 | NCI-H661 | 0.768
135 | COR-L 105 | 0.717
136 | H3255 | 0.526
137 | NCI-H2347 | 0.354
138 | NCI-H1975 | 0.774
139 | NCI-H441 | 0.645
140 | NCI-H1650 | 0.722
141 | NCI-H1915 | 0.283
142 | NCI-H2087 | 0.654
143 | HCC-366 | 0.388
144 | NCI-H1793 | 0.859
145 | RERF-LC-KJ | 0.833
146 | EMC-BAC-2 | 0.522
147 | LCLC-97TM1 | 0.535
148 | NCI-H1651 | 0.185
149 | NCI-H2170 | 0.63
150 | NCI-H2009 | 0.662
151 | ABC-1 | 0.707
152 | SK-MES-1 | 0.759
153 | NCI-H727 | 0.632
154 | SW 1573 | 0.507

same assay, conditions: first compound 0.8 µM

Row | Cell Line | relative viability
155 | NCI-H1437 | 0.611
156 | NCI-H661 | 0.736
157 | COR-L 105 | 0.503
158 | H3255 | 0.605
159 | NCI-H2347 | 0.562
160 | NCI-H1975 | 0.813
161 | NCI-H441 | 0.603
162 | NCI-H1650 | 0.752
163 | NCI-H1915 | 0.271
164 | NCI-H2087 | 0.649
165 | HCC-366 | 0.401
166 | NCI-H1793 | 0.667
167 | RERF-LC-KJ | 0.902
168 | EMC-BAC-2 | 0.5
169 | LCLC-97TM1 | 0.458
170 | NCI-H1651 | 0.2
171 | NCI-H2170 | 0.542
172 | NCI-H2009 | 0.742
173 | ABC-1 | 0.714
174 | SK-MES-1 | 0.718
175 | NCI-H727 | 0.701
176 | SW 1573 | 0.575

same assay, conditions: first compound 2.53 µM

Row | Cell Line | relative viability
177 | NCI-H1437 | 0.635
178 | NCI-H661 | 0.791
179 | COR-L 105 | 0.696
180 | H3255 | 0.564
181 | NCI-H2347 | 0.49
182 | NCI-H1975 | 0.793
183 | NCI-H441 | 0.678
184 | NCI-H1650 | 0.736
185 | NCI-H1915 | 0.277
186 | NCI-H2087 | 0.637
187 | HCC-366 | 0.399
188 | NCI-H1793 | 0.892
189 | RERF-LC-KJ | 0.852
190 | EMC-BAC-2 | 0.531
191 | LCLC-97TM1 | 0.447
192 | NCI-H1651 | 0.214
193 | NCI-H2170 | 0.614
194 | NCI-H2009 | 0.649
195 | ABC-1 | 0.78
196 | SK-MES-1 | 0.784
197 | NCI-H727 | 0.853
198 | SW 1573 | 0.374

same assay, conditions: first compound 8 µM

Row | Cell Line | relative viability
199 | NCI-H1437 | 0.532
200 | NCI-H661 | 0.678
201 | COR-L 105 | 0.648
202 | H3255 | 0.564
203 | NCI-H2347 | 0.612
204 | NCI-H1975 | 0.418
205 | NCI-H441 | 0.523
206 | NCI-H1650 | 0.621
207 | NCI-H1915 | 0.312
208 | NCI-H2087 | 0.419
209 | HCC-366 | 0.302
210 | NCI-H1793 | 0.544
211 | RERF-LC-KJ | 0.462
212 | EMC-BAC-2 | 0.432
213 | LCLC-97TM1 | 0.345
214 | NCI-H1651 | 0.202
215 | NCI-H2170 | 0.623
216 | NCI-H2009 | 0.604
217 | ABC-1 | 0.606
218 | SK-MES-1 | 0.654
219 | NCI-H727 | 0.775
220 | SW 1573 | 0.227
